Measurements published in ChEMBL document CHEMBL1131709, “Acyl-CoA: cholesterol acyltransferase inhibitory activity of ginseng sapogenins, produced from the ginseng saponins” (Bioorg Med Chem Lett, 1999).

Molecular target: T1, Sterol O-acyltransferase 1 (Rattus norvegicus, UniProt O70536)
T1 sequence (O70536 whole entry): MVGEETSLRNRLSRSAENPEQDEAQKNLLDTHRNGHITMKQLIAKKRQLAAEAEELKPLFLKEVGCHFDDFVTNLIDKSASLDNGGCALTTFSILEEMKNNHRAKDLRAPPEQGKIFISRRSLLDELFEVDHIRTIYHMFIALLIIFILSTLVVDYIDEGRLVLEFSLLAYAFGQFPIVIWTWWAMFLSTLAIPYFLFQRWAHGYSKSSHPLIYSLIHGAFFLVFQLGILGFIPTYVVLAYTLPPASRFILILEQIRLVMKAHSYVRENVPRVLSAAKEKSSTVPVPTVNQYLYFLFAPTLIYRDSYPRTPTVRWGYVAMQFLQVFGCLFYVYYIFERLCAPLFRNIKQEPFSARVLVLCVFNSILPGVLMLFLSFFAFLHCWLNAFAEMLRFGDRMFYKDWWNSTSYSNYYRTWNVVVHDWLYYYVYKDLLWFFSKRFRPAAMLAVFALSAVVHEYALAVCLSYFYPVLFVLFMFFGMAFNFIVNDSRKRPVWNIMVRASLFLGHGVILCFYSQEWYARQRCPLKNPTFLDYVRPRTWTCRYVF
Assay: In vitro inhibitory activity of compound was measured on rat liver Acyl coenzyme A:cholesterol acyltransferase

Compound | IC50 [µM]
CC1(C)CCC[C@](C)(C2CC[C@]3(C)C2[C@H](O)CC2[C@@]4(C)CC[C@H](O)C(C)(C)C4CC[C@]23C)O1 (stereo partly drawn) | 55
CC(C)=CCC[C@](C)(O)[C@H]1CC[C@]2(C)[C@@H]1[C@H](O)C[C@@H]1[C@@]3(C)CC[C@H](O)C(C)(C)[C@@H]3CC[C@]12C | 30
CC(C)=CCC[C@](C)(O)C1CC[C@]2(C)C1[C@H](O)CC1[C@@]3(C)CC[C@H](O)C(C)(C)C3[C@@H](O)C[C@]12C (stereo partly drawn) | 24
CC(C)=CCC[C@@](C)(O)[C@H]1CC[C@]2(C)C1[C@H](O)C[C@@H]1[C@@]3(C)CC[C@H](O)C(C)(C)[C@@H]3[C@@H](O)C[C@]12C (stereo partly drawn) | 6
CC(C)=CCC[C@@](C)(O)[C@H]1CC[C@]2(C)[C@@H]1[C@H](O)C[C@@H]1[C@@]3(C)CC[C@H](O)C(C)(C)[C@@H]3CC[C@]12C | 10
CC1(C)CCC[C@](C)(C2CC[C@]3(C)C2[C@H](O)CC2[C@@]4(C)CC[C@H](O)C(C)(C)C4[C@@H](O)C[C@]23C)O1 (stereo partly drawn) | 12
CC1(C)CCC[C@@](C)(C2CC[C@]3(C)C2[C@H](O)CC2[C@@]4(C)CC[C@H](O)C(C)(C)C4CC[C@]23C)O1 (stereo partly drawn) | 25
CC1(C)CCC[C@@](C)(C2CC[C@]3(C)C2[C@H](O)CC2[C@@]4(C)CC[C@H](O)C(C)(C)C4[C@@H](O)C[C@]23C)O1 (stereo partly drawn) | 28
